Assay results reported in US5648379A (priority 1990, dated 1997).
Converted amounts (≈) assume the structure as drawn. “Also recorded” adds a separate entry of the source. Like-named read-outs stand apart in the source and are kept apart here.

Key:
[1] = tested on: Vibrio cholerae neuraminidase; conditions: literature; cited from earlier work
[2] = tested on: Neuraminidase from Arthrobacter sialophilus; conditions: in vitro; Kumar et al. 1981, 1982; cited from earlier work
[3] = tested on: Neuraminidase in at least some strains of influenza or parainfluenza viruses; conditions: in vitro; Zakstel'skaya et al. 1972; cited from earlier work
[4] = tested on: Influenza B/Victoria/102/85; assay: microbe, parasite or virus in culture; assay type: cell-based; conditions: MDCK, 72 h, read-out: IC50 Plaque Reduction, Influenza B
[5] = tested on: H2N2 influenza A virus (A/Sing/1/57); assay type: in vivo, mice; conditions: for % AUC (lung virus titre, compared to untreated mice): days 1-3; for titre of virus in lung tissue: intranasal, before and during challenge, 1 to 3 days after infection
sheep neuraminidase = assay: In vitro inhibition of sheep neuraminidase; assay type: biochemical; conditions: pH 4.5
[6] = tested on: influenza A/Singapore/1/57 (H2N2); assay: microbe, parasite or virus in culture; assay type: cell-based; conditions: H2N2, MDCK, 72 h, read-out: IC50 Plaque Reduction, Influenza A
influenza virus = assay: microbe, parasite or virus in culture; assay type: cell-based; conditions: unidentified influenza virus, read-out: IC50 plaque reduction
neuraminidase = conditions: literature; cited from earlier work
[7] = literature; cited from earlier work
[8] = Effective dose in vivo (statement in description); conditions: compared with DANA
[9] = Experiment 2, 12.5 mg/kg intranasal

CC(=O)NC1C(O)CC(C(=O)O)OC1C(O)C(O)CO (centres unmarked)
inhibition of Vibrio cholerae neuraminidase [1]: did not inhibit

CC(=O)N[C@H]1[C@H]([C@H](O)[C@H](O)CO)OC(C(=O)O)=C[C@H]1O [2,3-dehydro-4-epi-N-acetyl-neuraminic acid]
inhibition of Arthrobacter sialophilus neuraminidase [2]: inhibited in vitro

O=C1CNC(=O)[C@H]([C@H](O)[C@H](O)CO)O1 [3-aza-2,3,4-trideoxy-4-oxo-D-arabinoctonic acid δ-lactone]
inhibition of influenza or parainfluenza virus neuraminidase [3]: inhibited in vitro

CC(=O)N[C@@H]1C(=O)C=C(C(=O)O)O[C@H]1[C@H](O)[C@H](O)CO [5-acetamido-2,6-anhydro-2,3,5-trideoxy-D-manno-non-2-en-4-ulosonate]
inhibition of Arthrobacter sialophilus neuraminidase [2]: inhibited in vitro

CC(=O)N[C@H]1[C@H]([C@H](O)[C@H](O)CO)OC(C(=O)O)=C[C@@H]1N=C(N)N [Compound 7, Ammonium 5-Acetamido-4-guanidino-2,3,4,5-tetradeoxy-D-glycero-D-galacto-non-2-enopyranosonate]
IC50 [4]: 1.6 µM | % AUC (lung virus titre, compared to untreated mice) [5, 9]: 0.03% | titre of virus in lung tissue [5]: reduced the titre of virus in lung tissue | Ki (sheep neuraminidase): > 10000 µM | IC50 [6]: 1.6 µM

CC(=O)N[C@H]1[C@H]([C@H](O)[C@H](O)CO)OC(C(=O)O)=C[C@@H]1O [DANA, 2-deoxy-2,3-didehydro-N-acetylneuraminic acid]
% AUC (lung virus titre, compared to untreated mice) ([5]; Experiment 1, 25 mg/kg intranasal): 0.18% | % AUC (lung virus titre, compared to untreated mice) [5, 9]: 2.0% | % AUC (lung virus titre, compared to untreated mice) ([5]; Experiment 3, 12.5 mg/kg intranasal): 48.0% | titre of virus in lung tissue [5]: reduced the titre of virus in lung tissue | inhibition of Arthrobacter sialophilus neuraminidase [2]: inhibited in vitro | IC50 (influenza virus): 5 mg/L (≈ 17.2 µM)

O=C(O)C1=C[C@H](O)[C@@H](NC(=O)C(F)(F)F)[C@H]([C@H](O)[C@H](O)CO)O1 [FANA, 2-deoxy-2,3-dehydro-N-trifluoroacetyl-neuraminic acid]
activity among neuraminidase inhibitors of the DANA type (neuraminidase): most active | anti-viral activity in vivo [7]: not to possess in vivo anti-viral activity; also recorded: inactive in vivo

CC(=O)NC1C(O)CC(OC2C(O)C(CO)OC(O)C2NC(C)=O)(C(=O)O)OC1C(O)C(O)CO [O-α-N-acetyl-D-neuraminosyl-)2→3)-2-acetamido-2-deoxy-D-glucose]
inhibition of influenza or parainfluenza virus neuraminidase [3]: inhibited in vitro

COC(=O)C1=C[C@H](O)[C@@H](NC(C)=O)[C@H]([C@H](O)[C@H](O)CO)O1 [methyl ester of DANA]
IC50 (influenza virus): 50 to 100 mg/L (≈ 164 to 328 µM) | effective dose, in words [8]: effective at proportionally higher dose
